Experimental data as given in patent US12637662B2, “Cells, islets, and organoids that evade immune detection and autoimmunity, methods of production and use thereof” (SALK INSTITUTE FOR BIOLOGICAL STUDIES, priority 2018, dated 2026).
Entries after “also recorded” stand apart in the source; their conditions may differ.

How the values were obtained:
[1] = test system: human iPSC derived cells (islet-like organoids, MCS, HILOs); assay: Glucose-stimulated insulin/c-peptide secretion assay (GSIS, ELISA); type: cell-based; conditions: 3 mM vs 20 mM glucose
Procedure: Insulin release from intact islets was monitored using batch incubation methods as reported by E. Yoshihara et al., 2016, Cell metabolism, 23:622-634. Briefly, overnight-cultured, isolated pancreatic islets (RPMI-1640 medium supplemented with 10% (v/v) fetal bovine serum and 1% (v/v) Antibiotic-Antimycotic (Gibco)) were pre-cultured at 37° C. for 30 minutes in Krebs-Ringer bicarbonate buffer (KRBB) containing 129.4 mM NaCl, 3.7 mM KCl, 2.7 mM CaCl2), 1.3 mM KH2PO4, 1.3 mM MgSO4, 24.8 mM NaHCO3 (equilibrated with 5% CO2, 95% O2, pH 7.4), 10 mM HEPES and 0.2% (v/v) BSA (fraction V, Sigma) (KRBH) with 3 mM glucose). […] After 30 minutes, the islets were pelleted by centrifugation and secreted insulin levels were determined in the medium by Enzyme Linked Immunosorbent Assay (ELISA), (Rat/mouse Insulin ELISA KIT (Millipore) and Human Insulin ELISA KIT or ultrasensitive human c-peptide ELISA Kit (Millipore) for mouse and human islets, respectively). […] After 30 minutes, the cells were pelleted by centrifugation and c-peptide levels were determined in the supernatant medium using the human c-peptide ELISA KIT (Millipore). […]
Insulin release from intact islets was monitored using batch incubation methods (Yoshihara et al., 2010, Nat. Commun. 1:127). […] After 30 min, the cells were pelleted by centrifugation and c-peptide levels were determined by human c-peptide ELISA KIT (Millipore).

INS-1 cells = assay: Proinsulin-NanoLuc Gaussia luciferase insulin secretion assay in INS-1 cells; type: cell-based, rat; conditions: 20 mM glucose with Exendin-4
Procedure: It was previously published that a reporter construct, in which the Gaussia luciferase is placed within the c-peptide portion of proinsulin accurately measures insulin secretion without affecting β-cell function (Burns et al., 2015, Cell metabolism, 21, 126-137). Using a lentiviral system, INS-1 cells stably expressing this Gaussia luciferase were generated. Luciferase secretion from INS-1 cells stably expressing Proinsulin-NanoLuc increased with high-glucose (20 mM), high glucose with Exendin-4 (G20 mM+Ex4), and the depolarizing agent, potassium chloride, confirming the utility of this reporter system. Next, the usefulness of this reporter to measure insulin secretion in mouse or human islets transiently infected with the Proinsulin-NanoLuc reporter was evaluated. Luciferase secretion in response to 20 mM high glucose was detected in both transiently infected mouse and human islets were detected. Importantly, the assay sensitivity was sufficient that insulin secretion could be qualified at the level of single islets. […] (See, e.g., WO 2017/205511). […]

[2] = test system: human islet-like organoids; assay: Proinsulin-NanoLuc Gaussia luciferase insulin secretion assay in single or pooled islets/organoids; type: cell-based; conditions: pooled organoids (10 to 100 per assay)
Description: Recent studies have reported the generation of insulin producing β-like cells from hESC and hiPSC capable of secreting insulin in response to glucose (Pagliuca et al., 2014, Cell, 159, 428-439; Rezania et al., 2014, Nature Biotechnology, 32(11):1121-33; Russ et al., 2015, FMBO Journal, 34:1759-1772). […] To date, efforts have focused on the independent generation of insulin producing β-like cells, glucagon producing α-like cells, and somatostatin producing 6-like cells from hPSC. However, these approaches lack the supporting cells important for regulation, such as mesenchymal cells, adipose cells, and vasculature cells. Since the 3D structure of islets naturally enhances their function, these missing cellular components may compromise the functionality of islet-like cells clusters. […] To test this idea, single organoid proinsulin secretion assays were performed. Human islet-like organoids generated by methods described herein are morphologically identical with human islet.
Mouse islets, human islets and human islets like organoids were plated in their respective growth media with 10 μg/ml Polybrene® polymer (Santacruz). Viruses were then added. After overnight culture, cells were placed in fresh growth media. […]

[3] = test system: PD-L1 expression in human islets; assay: PD-L1 induction by IFNγ in human islets; type: cell-based; conditions: 12 hours after IFNγ treatment (FIG. 12F)
[4] = test system: PD-L1 expression in wHILOs; assay: PD-L1 induction by IFNγ in wHILOs; type: cell-based, human
Procedure: For acute treatment, wHILOs were treated with 10 ng/ml IFNγ in the differentiation medium (S5 with 10 μM Trolox, 2 μM R428, 1 mM N-acetyl cysteine, 10 μM Alk5 inhibitor II, 1 μM T3 and 100 ng/ml rhWnt4 (recombinant human Wnt4)) for 2 hours. Cells were then washed twice with PBS prior to culturing in differentiation medium (S5 with 10 μM Trolox, 2 μM R428, 1 mM N-acetyl cysteine, 10 μM Alk5 inhibitor II, 1 μM T3 and 100 ng/ml rhWnt4) (single pulse stimulation). IFNγ exposure was repeated 3 times with washing and 24 hours resting time in differentiation medium (S5 with 10 μM Trolox, 2 μM R428, 1 mM N-acetyl cysteine, 10 μM Alk5 inhibitor II, 1 μM T3 and 100 ng/ml rhWnt4) between each IFNγ exposure (MPS stimulation) to generate wHILO^ie. After the final IFNγ pulse, cells were cultured in the tissue culture incubator for a week prior to the RNA-seq analyses (FIGS. 14A-14C), ATAC-seq analyses (FIG. 14D) and transplantation into STZ-induced diabetic C57BL6J mice (FIG. 5J) or humanized mice (FIG. 15B).
Total RNA was extracted using TRIzol reagent (Invitrogen) and RNeasy KIT (Qiagen). Reverse transcription was performed with a SuperScript III First-Strand Synthesis System kit (Invitrogen) or PrimeScript RT reagent kit (TAKARA). Real time quantitative RT-PCR (qPCR) was performed using SYBR Green (Bio-Rad).

[5] = test system: chromatin accessibility in HILO cells; assay: ATAC-Seq chromatin accessibility in HILOs; type: cell-based, human
Description: […] D. Buenrostro et al., 2015, Current Protocols in Molecular Biology, 109:21-29. Reads were aligned by Bowtie to hg19, and peaks were called by HOMER using default settings. Differential peaks and motif analyses from 2 biological duplicates were identified using HOMER essentially as instructed (see, e.g., S. Heinz et al., 2010, J. Mol. Cell, 38:576-589). Detailed methods for HOMER are freely available, e.g., at http://http://homer.salk.edu/homer/. Briefly, the program searches against the target and background sequences for enrichment of known motifs, and returns motifs enriched with a threshold of 1.5-fold change and a p-value of less than 0.05. Promoter regions, defined as 1 kilobase (kB) upstream from the transcription start site, of genes with enhanced chromatin accessibility upon Wnt4 treatment, were interrogated for enriched motifs of 8-16 bp using HOMER motif analysis.

PD-1 = PD-1 (Homo sapiens, UniProt Q15116); conditions: read-out: Kd (dissociation constant), binding to PD-1; cited from earlier work
CD80 (B7-1) = molecular target: T1, CD80 (B7-1) (Homo sapiens, UniProt P33681); conditions: cited from earlier work
T1 sequence (P33681 35-288): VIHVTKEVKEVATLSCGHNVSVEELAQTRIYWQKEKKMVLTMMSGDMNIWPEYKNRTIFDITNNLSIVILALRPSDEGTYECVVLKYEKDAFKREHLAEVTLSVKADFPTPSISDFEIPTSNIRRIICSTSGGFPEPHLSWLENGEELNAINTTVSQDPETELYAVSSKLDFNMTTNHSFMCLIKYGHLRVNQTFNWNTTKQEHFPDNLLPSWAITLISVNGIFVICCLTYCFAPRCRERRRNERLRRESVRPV

CD86 (B7-2) = molecular target: T2, CD86 (B7-2) (Homo sapiens, UniProt P42081); conditions: cited from earlier work
T2 sequence (P42081 24-329): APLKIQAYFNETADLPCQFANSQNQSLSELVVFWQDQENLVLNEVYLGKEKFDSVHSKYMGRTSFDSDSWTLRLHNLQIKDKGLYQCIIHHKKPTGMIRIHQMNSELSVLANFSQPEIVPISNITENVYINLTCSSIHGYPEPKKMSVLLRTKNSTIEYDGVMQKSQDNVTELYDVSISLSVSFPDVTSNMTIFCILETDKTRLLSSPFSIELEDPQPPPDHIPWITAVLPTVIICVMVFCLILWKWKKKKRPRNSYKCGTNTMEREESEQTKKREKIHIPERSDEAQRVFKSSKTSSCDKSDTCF

[6] = test system: human islet-like organoids; assay: Amyloid polypeptide (hIAPP) toxicity in human islet-like organoids; type: cell-based; conditions: 24 hours
Description: The generation of functional human organs according to methods described herein provides new strategies for drug-screening and disease modeling. Specifically, functional organoids can be used as models of type 2 diabetes for drug screening.

Sequence of PD-1 (Q15116 25-288): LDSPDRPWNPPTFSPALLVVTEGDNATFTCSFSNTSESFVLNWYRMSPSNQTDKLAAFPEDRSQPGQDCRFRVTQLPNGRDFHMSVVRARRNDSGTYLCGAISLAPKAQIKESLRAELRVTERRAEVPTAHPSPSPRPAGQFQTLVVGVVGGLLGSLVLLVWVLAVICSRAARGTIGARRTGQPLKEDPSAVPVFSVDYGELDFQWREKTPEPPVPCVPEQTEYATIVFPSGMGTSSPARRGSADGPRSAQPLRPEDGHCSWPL

For `Oc1nc(-c2ccc(C(F)(F)F)cc2)nc2c1CSCC2` [XAV939, reference compound], the “glucose-stimulated insulin (c-peptide) secretion in vitro” value [1] was “not blocked”.

With Exendin-4 the “luciferase secretion (insulin secretion reporter)” value (INS-1 cells) was “increased”.

For “GLP-1: incretin used for co-stimulation of insulin secretion”, the “GSIS by proinsulin luciferase secretion assay” value [2] was “enhanced GSIS”.

For “IFNγ: recombinant human IFNγ (R&D Systems, 285-IF) used to induce PD-L1 expression”, the “increase in PD-L1 expression” value [3] was “approximately 20 fold”, the “duration of sustained PD-L1 expression after MPS” value ([4]; at least 3 pulses, 10 ng/ml, 2 hours per pulse) was “at least 7 days” and the “PD-L1 expression after repeated short IFNγ exposures (MPS) (in words)” value ([4]; multiple pulse stimulation) was “high levels of PD-L1 protein expression; also recorded: sustained PD-L1 expression”. The “PD-L1 induction after single IFNγ exposure (in words)” value ([4]; single / acute exposure) was “rapidly and robustly induced; also recorded: maximum PD-L1 induction; also recorded: transient”, the “chromatin accessibility at PD-L1, IRF9, JUNB, JUND loci” value ([5]; after MPS IFNγ treatment) was “persistent increases” and the “chromatin accessibility at IRF1, STAT1” value ([5]; after acute (12 h) IFNγ treatment) was “not sustained”. For the same compound, the “GSIS functionality after MPS IFNγ” value ([1]; wHILOs) was “not compromised”.

In the case of “PD-L2: related molecule that shares PD-1 as a receptor”, the Kd (PD-1) is listed as 140 nM, the “affinity for CD80 (in words)” value (CD80 (B7-1)) is listed as “does not have affinity” and the “affinity for CD86 (in words)” value (CD86 (B7-2)) is listed as “does not have affinity”.

With “hIAPP: amyloid polypeptide, an inducer of β cell loss in type 2 diabetic patients (KCNTATCATQRLANFLVHSSNNFGAILSSTNVGSNTY; Islet amyloid polypeptide; UniProt P10997 34-70, looked up)” the cell cycle arrest [6] was “dose-dependently induced G0/G1 arrest”.
